# Data reported in US9047503B2, “System and method for automated biological cell assay data analysis” (GE HEALTHCARE UK LIMITED, priority 2010, dated 2015).
# Assays:
# [1] = test system: cytoplasmatic membrane integrity; assay type: cell-based
# Experimental: (§1) However, in order to verify further the robustness of the developed methods, these algorithms were tested on FOV-averaged data generated from a real toxicity assay. The cell-based experiment involved the influence of several drugs and the applications of two fluorescent markers during a 5-hour time course. The general background for such an experimental study is outlined in the article by O'Brien et al.
# The first example analyzed the cytoplasmatic membrane integrity, as indicated by the TOTO-3 marker. TOTO-3 stains cell nuclei only after cell plasma membrane disruption. The response1(t) generated by disruption to the membrane is therefore a curve representing the increase of cell nuclei intensity in TOTO-3 channel. This intensity was measured by a microscopy HTS system. However, the exact moment when a particular membrane became disrupted was unpredictable.
# The analysis therefore used stochastic fitting involving a single time parameter (the width of the box-shaped distribution of starting times of the response).
# FIG. 11 represents the raw TOTO-3 response. The TOTO-3 response was taken for two values of drug concentration, denoted “high” and “low”.
# Data fitting was performed using a response1(t) function having an exponential rising shape. τ was equal to 15 minutes, A=0.5 and B=1.48. The starting time distribution was box shaped with tmin=0 and widtht−fitted.
# [2] = test system: mitochondrial membrane potential; assay type: cell-based
# Experimental: Various examples describing various real-life responses obtained using the mitochondrial marker TMRM will now be given. In actual images of cells stained with TMRM, the level of fluorescence intensity is related to the mitochondrial membrane potential, loss of which can be an indicator of cytotoxicity.
# as §1
# The second example analyzed a mitochondrial marker (TMRM) response. […] It was assumed that all cells started reacting immediately after drug addition. The reaction of a mitochondrial potential to a perturbation (i.e. a drug) is considered to be potentially very diverse.
# The expression defined in Equation 16 above is very flexible, and uses as a fitting parameter the single time scale (“τ”), amplitude (“range”) and another parameter (“α”) for controlling response nonlinearity.
# The TMRM response was taken for two values of drug concentration, denoted “high” and “low”.
# Data fitting was performed using the technique discussed in relation to Equation 16, above. […]
TOTO-3 response speed (characteristic time) relative to controls [1],effect on mitochondrial function (TMRM response) [2],Structure (SMILES)
responding faster than controls,,COc1ccc(CCN2CCC(Nc3nc4ccccc4n3Cc3ccc(F)cc3)CC2)cc1 [astemizole]
,no effect,O=C1CN(/N=C/c2ccc(-c3ccc([N+](=O)[O-])cc3)o2)C(O)=N1 [dantrolene]
,no effect,Cc1oncc1C(=O)Nc1ccc(C(F)(F)F)cc1 [leflunomide]
responding faster than controls,,CC[C@H](C)C(=O)O[C@H]1C[C@@H](C)C=C2C=C[C@H](C)[C@H](CC[C@@H]3C[C@@H](O)CC(=O)O3)[C@H]21 [lovastatin]
responding faster than controls,,CC/C(=C(\c1ccccc1)c1ccc(OCCN(C)C)cc1)c1ccccc1 [tamoxifen]
